Measured values reported in patent US9918470B2, “Pesticidal mixtures” (Syngenta Participations AG, priority 2011, dated 2018).

What was measured:
[1] = test system: Tetranychus urticae (Two-Spotted Spider Mite); assay: Tetranychus urticae (Two-Spotted Spider Mite): sprayed bean leaf discs, mobile stages mortality after 8 days; format: in vivo
Description: Tetranychus urticae (Two-Spotted Spider Mite)
Bean leaf discs on agar in 24-well microtiter plates are sprayed with test solutions (DMSO). After drying, the leaf discs are infested with mite populations of mixed ages. 8 days later, discs are checked for mobile stages (I removed “mixed population”) mortality.
(§1) Columns 4 and 5 show the control observed from the compounds alone. […] When a compound applied alone gave no control at a particular rate, it is assumed that lower rates of that compound alone also give no control. DMET=deltamethrin, SPAT=spirotetramat, IMID=imidacloprid, B15=compound 15 in Table B.

[2] = test system: Heliothis virescens (Tobacco Budworm); assay: Heliothis virescens (Tobacco Budworm): eggs on artificial diet in 24-well plate, larval mortality after 4 days; format: in vivo
Method: Heliothis virescens (Tobacco Budworm)
Eggs (0-24 h old) are placed in 24-well microtiter plate on artificial diet and treated with test solutions (DMSO) by pipetting. After an incubation period of 4 days, samples are checked for larval mortality.
as §1

## CC(NC(=O)C1CC1)c1ccc(N2CCC(c3cc(C(F)(F)F)cc(C(F)(F)F)c3)(C(F)(F)F)C2)cc1 (mixture of isomers) [Compound B15]
[1]; B15 alone 0.187 ppm
  B15 observed control %: 0%
[1]; B15 alone 0.375 ppm
  B15 observed control %: 0%
[1]; B15 alone 0.75 ppm
  B15 observed control %: 0%
[1]; B15 alone 1.5 ppm
  B15 observed control %: 30%
[2]; B15 alone 0.05 ppm (Table 2)
  B15 observed control %: 0%
[2]; B15 alone 0.1 ppm (Table 1)
  B15 observed control %: 55%
[2]; B15 alone 0.1 ppm (Table 2)
  B15 observed control %: 0%
[2]; B15 alone 0.2 ppm (Table 1)
  B15 observed control %: 75%
[2]; B15 alone 0.2 ppm (Table 2)
  B15 observed control %: 85%
[2]; B15 alone 0.4 ppm (Table 1)
  B15 observed control %: 75%
[2]; B15 alone 0.4 ppm (Table 2)
  B15 observed control %: 90%
[2]; B15 alone 0.8 ppm (Table 1)
  B15 observed control %: 85%
[2]; B15 alone 0.8 ppm (Table 2)
  B15 observed control %: 90%
[2]; B15 alone 1.6 ppm (Table 1)
  B15 observed control %: 95%

## CC1(C)[C@H](C(=O)O[C@H](C#N)c2cccc(Oc3ccccc3)c2)[C@@H]1C=C(Br)Br [DMET, deltamethrin]
[2]; DMET alone 0.0062 ppm
  DMET observed control %: 0%
[2]; DMET alone 0.0125 ppm
  DMET observed control %: 0%
[2]; DMET alone 0.025 ppm
  DMET observed control %: 0%
[2]; DMET alone 0.05 ppm
  DMET observed control %: 0%
[2]; DMET alone 0.1 ppm
  DMET observed control %: 0%
[2]; DMET alone 0.2 ppm
  DMET observed control %: 0%
[2]; DMET alone 0.4 ppm
  DMET observed control %: 0%
[2]; DMET alone 0.8 ppm
  DMET observed control %: 0%

## CCOC(=O)OC1=C(c2cc(C)ccc2C)C(=O)N[C@]12CC[C@@H](OC)CC2 [SPAT, spirotetramat]
[2]; SPAT alone 6.25 ppm
  SPAT observed control %: 0%
[2]; SPAT alone 12.5 ppm
  SPAT observed control %: 0%
[2]; SPAT alone 25 ppm
  SPAT observed control %: 0%
[2]; SPAT alone 50 ppm
  SPAT observed control %: 0%
[2]; SPAT alone 100 ppm
  SPAT observed control %: 0%
[2]; SPAT alone 200 ppm
  SPAT observed control %: 55%

## O=[N+]([O-])NC1=NCCN1Cc1ccc(Cl)nc1 [IMID, imidacloprid]
[1]; IMID alone 12.5 ppm
  IMID observed control %: 0%
[1]; IMID alone 25 ppm
  IMID observed control %: 0%
[1]; IMID alone 50 ppm
  IMID observed control %: 0%
[1]; IMID alone 100 ppm
  IMID observed control %: 0%
[1]; IMID alone 200 ppm
  IMID observed control %: 0%
[1]; IMID alone 400 ppm
  IMID observed control %: 0%
